Test system: patients recruited within 30 days after a myocardial infarction
Assay: COLCOT randomized, double-blind, placebo-controlled trial: clinical efficacy end points
Type: in vivo, human
Details: for risk of ischemic cardiovascular events / primary composite efficacy end point versus placebo (in words): 0.5 mg once daily; for Total primary endpoint events, Rate Ratio (95% CI), Negative binomial model: marginal rate ratio
Experimental: We performed a randomized, double-blind trial involving patients recruited within 30 days after a myocardial infarction. The patients were randomly assigned to receive either low-dose colchicine (0.5 mg once daily) or placebo. A total of 4745 patients were enrolled; 2366 patients were assigned to the colchicine group, and 2379 to the placebo group. Patients were followed for a median of 22.6 months.
The primary efficacy end point was a composite of death from cardiovascular causes, resuscitated cardiac arrest, myocardial infarction, stroke, or urgent hospitalization for angina leading to coronary revascularization. The components of the primary end point and safety were also assessed.
In this randomized, double-blind, placebo-controlled, investigator-initiated trial, we assigned patients in a 1:1 ratio to receive either colchicine (at a dose of 0.5 mg once daily) or placebo. The trial protocol, available at NEJM.org, was designed by a trial steering committee. The protocol was approved by the institutional review board at each of the 167 centers in the 12 countries that participated in the trial (available at NEJM.org). All trial support activities, including project coordination, data management, site monitoring, and statistical oversight and analyses, were performed at the Montreal Health Innovations Coordinating Center. Potential trial end-point events were adjudicated by an independent clinical end-point committee composed of experienced cardiologists and neurologists who were unaware of the trial-group assignments. The trial was overseen by a data and safety monitoring board of independent experts. The trial medication and matching placebo were provided by Pharmascience.
Patients were excluded if they had severe heart failure, a left ventricular ejection fraction of less than 35%, stroke within the previous 3 months, a type 2 index myocardial infarction, coronary-bypass surgery either within the previous 3 years or planned, a history of noncutaneous cancer within the previous 3 years, inflammatory bowel disease or chronic diarrhea, neuromuscular disease or a nontransient creatine kinase level that was greater than three times the upper limit of the normal range (unless due to infarction), clinically significant nontransient hematologic abnormalities, severe renal disease with a serum creatinine level that was greater than two times the upper limit of the normal range; severe hepatic disease, drug or alcohol abuse, current or planned long-term systemic glucocorticoid therapy, or a history of clinically significant sensitivity to colchicine. (Details regarding eligibility criteria are provided herein.)
The primary efficacy end point was a composite of death from cardiovascular causes, resuscitated cardiac arrest, myocardial infarction, stroke, or urgent hospitalization for angina leading to coronary revascularization in a time-to-event analysis.
The secondary end points consisted of the components of the primary efficacy end point; a composite of death from cardiovascular causes, resuscitated cardiac arrest, myocardial infarction, or stroke; and total mortality in time-to-event analyses. Coronary revascularization, hospitalization for heart failure, atrial fibrillation, and deep venous thrombosis or pulmonary embolus were prespecified as exploratory end points in the protocol.
The efficacy analyses were conducted with the use of positively adjudicated data and according to the intention-to-treat principle. The primary end point was compared between the two trial groups with the use of a log-rank test, and the hazard ratio from a Cox proportional-hazards model, with a 95% confidence interval, was calculated. A Cox proportional-hazards model with adjustment for important baseline characteristics was also used as prespecified in the protocol.
The analysis of the primary end point was repeated in the per-protocol population (i.e., patients without major protocol deviations). […]

[1] = ITT, N=2366, first and recurrent events
[2] = colchicine vs placebo, ITT, listed as colchicine
[3] = colchicine vs placebo, per-protocol population

COc1cc2c(c(OC)c1OC)-c1ccc(OC)c(=O)cc1[C@@H](NC(C)=O)CC2 [Colchicine, colchicine]
risk of ischemic cardiovascular events / primary composite efficacy end point versus placebo (in words): statistically significant lower risk of ischemic cardiovascular events than placebo
risk of ischemic cardiovascular events / primary composite efficacy end point versus placebo (in words) (listed as colchicine): significantly lower percentage of patients with ischemic cardiovascular events than placebo
Time to first primary endpoint, Adjusted Hazard Ratio (95% CI) (Colchicine vs. Placebo, multivariable Cox regression adjusted for age, diabetes, prior revascularization, prior heart failure): 0.78 (0.62-0.98)
Atrial fibrillation, number of patients (ITT, N=2366, 0.5 mg once daily): 36
Atrial fibrillation, percent (ITT, N=2366, 0.5 mg once daily): 1.5%
Death from cardiovascular causes, number of patients (ITT, N=2366, 0.5 mg once daily): 20
Death from cardiovascular causes, percent (ITT, N=2366, 0.5 mg once daily): 0.8%
Death, number of patients (ITT, N=2366, 0.5 mg once daily): 43
Death, percent (ITT, N=2366, 0.5 mg once daily): 1.8%
Deep venous thrombosis or pulmonary embolus, number of patients (ITT, N=2366, 0.5 mg once daily): 10
Deep venous thrombosis or pulmonary embolus, percent (ITT, N=2366, 0.5 mg once daily): 0.4%
Myocardial infarction, number of patients (ITT, N=2366, 0.5 mg once daily): 89
Myocardial infarction, percent (ITT, N=2366, 0.5 mg once daily): 3.8%
Primary composite end point, number of patients (ITT, N=2366, 0.5 mg once daily): 131
Primary composite end point, percent of patients (ITT, N=2366, 0.5 mg once daily): 5.5%
Resuscitated cardiac arrest, number of patients (ITT, N=2366, 0.5 mg once daily): 5
Resuscitated cardiac arrest, percent (ITT, N=2366, 0.5 mg once daily): 0.2%
Secondary composite end point (CV death, resuscitated cardiac arrest, MI, stroke), number of patients (ITT, N=2366, 0.5 mg once daily): 111
Secondary composite end point, percent (ITT, N=2366, 0.5 mg once daily): 4.7%
Stroke, number of patients (ITT, N=2366, 0.5 mg once daily): 5
Stroke, percent (ITT, N=2366, 0.5 mg once daily): 0.2%
Urgent hospitalization for angina leading to revascularization, number of patients (ITT, N=2366, 0.5 mg once daily): 25
Urgent hospitalization for angina leading to revascularization, percent (ITT, N=2366, 0.5 mg once daily): 1.1%
Total number of primary endpoint events (first and recurrent) (ITT, N=2366, 52949 patient-months of follow-up): 154
Number of patients with 0 primary endpoint events [1]: 2235
Number of patients with 1 primary endpoint event [1]: 111
Number of patients with 2 primary endpoint events [1]: 18
Number of patients with 3 primary endpoint events [1]: 1
Number of patients with 4 primary endpoint events [1]: 1
Rate of primary endpoint events per 100 patient-months [1]: 0.29 per 100 patient-months
Atrial fibrillation, Hazard Ratio (95% CI) (colchicine vs placebo, ITT): 0.93 (0.59-1.46)
Death from cardiovascular causes, Hazard Ratio (95% CI) (colchicine vs placebo, ITT): 0.84 (0.46-1.52)
Death, Hazard Ratio (95% CI) (colchicine vs placebo, ITT): 0.98 (0.64-1.49)
Deep venous thrombosis or pulmonary embolus, Hazard Ratio (95% CI) (colchicine vs placebo, ITT): 1.43 (0.54-3.75)
Myocardial infarction, Hazard Ratio (95% CI) (colchicine vs placebo, ITT): 0.91 (0.68-1.21)
Resuscitated cardiac arrest, Hazard Ratio (95% CI) (colchicine vs placebo, ITT): 0.83 (0.25-2.73)
Secondary composite end point, Hazard Ratio (95% CI) (colchicine vs placebo, ITT): 0.85 (0.66-1.10)
Stroke, Hazard Ratio (95% CI) (colchicine vs placebo, ITT): 0.26 (0.10-0.70)
Total primary endpoint events, Hazard Ratio (95% CI), Andersen-Gill model (colchicine vs placebo, ITT): 0.69 (0.54; 0.88)
Total primary endpoint events, Hazard Ratio (95% CI), WLW model 1st Event (colchicine vs placebo, ITT): 0.77 (0.61; 0.96)
Total primary endpoint events, Hazard Ratio (95% CI), WLW model 2nd Event (colchicine vs placebo, ITT): 0.73 (0.48; 1.11)
Total primary endpoint events, Hazard Ratio (95% CI), WLW model 3rd Event (colchicine vs placebo, ITT): 0.64 (0.37; 1.10)
Total primary endpoint events, Hazard Ratio (95% CI), WLW model Average (colchicine vs placebo, ITT): 0.77 (0.61; 0.96)
Urgent hospitalization for angina leading to revascularization, Hazard Ratio (95% CI) (colchicine vs placebo, ITT): 0.50 (0.31-0.81)
Total primary endpoint events, Rate Ratio (95% CI), Negative binomial model (colchicine vs placebo, ITT): 0.66 (0.51; 0.86)
Total primary endpoint events, Rate Ratio (95% CI), Negative binomial model [2]: 0.66
Primary composite end point, Hazard Ratio (95% CI) (colchicine vs placebo, ITT, time to first event): 0.77
Death from cardiovascular causes, Hazard Ratio (95% CI) [2]: 0.84
Myocardial infarction, Hazard Ratio (95% CI) [2]: 0.91
Resuscitated cardiac arrest, Hazard Ratio (95% CI) [2]: 0.83
Secondary composite end point, Hazard Ratio (95% CI) [2]: 0.85
Stroke, Hazard Ratio (95% CI) [2]: 0.26
Urgent hospitalization for angina leading to revascularization, Hazard Ratio (95% CI) [2]: 0.50
Primary endpoint, hazard ratio (colchicine vs placebo, men, per-protocol population): 0.70 (0.52; 0.93)
MI, Hazard Ratio (95% CI) [3]: 0.84 (0.62-1.14)
Primary endpoint, Hazard Ratio (95% CI) [3]: 0.71 (0.56-0.90)
Resuscitated cardiac arrest, Hazard Ratio (95% CI) [3]: 1.00 (0.29-3.46)
Stroke, Hazard Ratio (95% CI) [3]: 0.26 (0.10-0.71)
Urgent hospitalization for angina requiring revascularization, Hazard Ratio (95% CI) [3]: 0.47 (0.28-0.78)
Primary endpoint, Hazard Ratio (95% CI) (colchicine vs placebo, per-protocol population, listed as colchicine): 0.71
Primary efficacy composite endpoint, Hazard ratio (colchicine vs placebo, subgroup Active smoker): 0.93
